From US4554353A, “2,5-Pyrrolidinedione derivatives useful as antiarrhythmic agents” (G. D. Searle & Co., priority 1984, dated 1985) come the findings set out here.

One assay addresses Muscarinic Receptor. The experiment in a line: Muscarinic Receptor Binding Assay (3H-QNB displacement, rat brain homogenate). To be noted: inhibition of specific 3H-QNB binding by 50%, 0.15 nM 3H-QNB, pH 7.4, 25° C., 1 hour.
The subject of a further assay is Ventricular arrhythmia. Description: Harris Dog Efficacy (ventricular arrhythmia induced by 2-stage coronary artery ligation in unanesthetized dogs). The class given is in vivo. Conditions: for minimal effective dose: Canis lupus familiaris, 10 min, intravenous, unanesthetized dogs, at least 25% reduction in ectopic beats for at least 10 minutes in half or more of dogs; for activity in the dog ventricular arrhythmia test: active = at least 25% reduction in ectopic beats for at least 10 minutes in half or more of dogs. The procedure:
Ventricular arrhythmia is induced by a 2-stage ligation of the anterior descending branch of the left coronary artery in each of two or more unanesthetized dogs. The test compound is administered intravenously at 5 mpk doses to a maximum dose of 20 mpk.

Regarding `CC(C)N(CCC1(c2ccccc2)CC(=O)NC1=O)C(C)C` (stereo not shown) [Example 2, 3-[2-[bis(1-methylethyl)amino]ethyl]-3-phenyl-2,5-pyrrolidinedione], the IC50 on Muscarinic Receptor turned out to be 140 nM. The compound further displayed a minimal effective dose with Ventricular arrhythmia of 10 mg/kg. Taken in the same sequence, the figures for `CC(C)N(CCC1(c2ccccc2Cl)CC(=O)NC1=O)C(C)C` (stereo not shown) [Example 4, 3-[2-[bis(1-methylethyl)-amino]ethyl]-3-(2-chlorophenyl)-2,5-pyrrolidinedione] were 300 nM and 2.8 mg/kg. The matching figures for `CC1CCCC(C)N1CCC1(c2ccccc2Cl)CC(=O)NC1=O` (stereo not shown) [Example 6, 3-(2-chlorophenyl)-3-[2-(2,6-dimethyl-1-piperidinyl)ethyl]-2,5-pyrrolidinedione]: 470 nM and 1.3 mg/kg.

At Muscarinic Receptor, `CCCN(CCC)CCCC1(c2ccccc2Cl)CC(=O)NC1=O` (stereo not shown) [Example 14] displayed an IC50 of 3600 nM. The compound further displayed a minimal effective dose with Ventricular arrhythmia of 1 mg/kg. The matching figures for `CCN(CC)CCC1(c2ccccc2)CC(=O)NC1=O` (stereo not shown) [Formula II (Prior Art), reference compound]: 20 nM and 2 mg/kg. Regarding `CC(C)N(CCC(C(N)=O)(c1ccccc1)c1ccccn1)C(C)C` (stereo not shown) [Norpace, reference compound], the “activity in the dog ventricular arrhythmia test” value in the assay on Ventricular arrhythmia is “active”. Same read-out and setting: for `CCN(CC)CCNC(=O)c1ccc(N)cc1` [procainamide, reference compound] the value was “active”; for `C=C[C@H]1C[N@@]2CC[C@H]1C[C@@H]2[C@@H](O)c1ccnc2ccc(OC)cc12` [quinidine, reference compound], “active”.

One may read the IC50 as the concentration that inhibits the measured activity by half. Lower therefore signals higher potency. As a reminder, the minimal effective dose is the smallest amount tested that counted as effective. Low readings indicate an effect from little substance, high ones a need for much substance.
